Here are results for four molecules from patent publication US6818739B2, “Somatostatins” (NDSU Research Foundation, priority 1999, dated 2004).

One assay has as its system rainbow trout. The conditions noted are these: in rainbow trout; Eilertson et al. 1993; cited from earlier work.
The subject of assay [1] is goldfish pituitary fragments. The conditions noted are these: goldfish pituitary fragments in vitro; Marchant et al. 1989; cited from earlier work.
In assay [2] the target is T1, human somatostatin receptor subtype 1 (Homo sapiens, UniProt P30872).
T1 construct: expressed in transfected cells; host or cells: COS-7 cells, transient transfection with pCMV6b expression vector; microsomal membranes
Description: Radio-receptor assay: competitive binding of somatostatins to cloned somatostatin receptor. The note with it: microsomes from COS-7 cells transiently expressing the human SS type 1 receptor; compared with mammalian SS-14 and mammalian SS-28; FIG. 8. The method, then: Somatostatin receptor cDNA was cloned into an expression vector, transfected into a eukaryotic cell line, and expressed as a peptide on the cell's surface to characterized the binding properties of the receptor for various somatostatin ligands.
Human somatostatin receptor subtype I cDNA was graciously obtained from Dr. Graeme Bell at the University of Chicago. Clones were prepared substantially as described in Yamada et al., Proc. Natl. Acad. Sci. USA, 89, 251-255 (1992). Briefly, a cDNA library was created by inserting total cDNA into a cloning vector. Clones containing the cDNA inserts were digested with restriction endonuclease Bg1II and subsequently subcloned in the pCMV6b expression vector (Stratagene Zap Express cDNA Synthesis Kit, La Jolla, Calif.). The resulting expression vector containing the cloned somatostatin receptor was transfected into COS-7 (American Tissue Culture Collection, Manassas, Va.) cells for peptide expression.
Twenty-four hours after splitting cells (e.g., COS-7) into new T-75 culture flasks (Nalgene, Rochester, N.Y.), the cells were washed with phosphate-buffered saline (PBS) and Tris-buffered saline-dextrose (TBS-D) solutions. […]
All tubes were incubated for 30-60 minutes at 37° C. while shaking. […] The resulting pellets were counted in a gamma counter to determine the binding properties of the various ligands to the somatostatin receptor.

Assay [3] concerns the target T2, cloned human somatostatin receptor subtype 1 (human, UniProt P30872 1-391).
T2 construct: whole, on cells; Transiently expressed in COS-7 cells; The assay used microsomal membrane preparations of these cells, not intact cells; also called human SS type 1 receptor; human somatostatin receptor type 1
Description: radio-receptor competition assay, displacement of 125I-[Tyr1]-SS-14 from COS-7 microsomal membranes. A general note: Displacement assays read how much labelled ligand stays bound in the presence of the test substance.
Description: Briefly, cell membranes, 25–1000 µg, were added to two sets of tubes labeled for total and non-specific binding (in triplicate) containing the following reagents in a final volume of 300 µl.
All tubes were incubated for 30–60 minutes at 37° C. while shaking. Reactions were stopped by adding 1 ml of ice-cold assay buffer and centrifuged at 20,000×g for 15 minutes. The supernatant is aspirated off. The resulting pellets were washed once with ice-cold assay buffer and centrifuged again at 20,000×g for 15 minutes. Again, the supernatant was aspirated off. The resulting pellets were counted in a gamma counter to determine the binding properties of the various ligands to the somatostatin receptor.

Ends that are not written are not given here.

T1 sequence (P30872 whole entry): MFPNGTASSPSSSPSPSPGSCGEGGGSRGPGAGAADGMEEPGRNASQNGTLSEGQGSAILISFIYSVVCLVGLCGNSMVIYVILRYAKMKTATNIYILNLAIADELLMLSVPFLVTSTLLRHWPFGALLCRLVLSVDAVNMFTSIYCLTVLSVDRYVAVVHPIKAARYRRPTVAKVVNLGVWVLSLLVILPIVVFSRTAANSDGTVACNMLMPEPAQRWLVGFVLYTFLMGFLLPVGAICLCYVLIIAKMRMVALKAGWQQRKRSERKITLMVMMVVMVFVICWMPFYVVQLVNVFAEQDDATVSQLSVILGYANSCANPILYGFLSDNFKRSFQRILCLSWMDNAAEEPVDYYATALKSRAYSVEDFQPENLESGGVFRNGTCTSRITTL
T2 sequence (P30872 whole entry): as above

“Ala-Gly-Cys-Lys-Asn-Phe-Phe-Trp-Lys-Thr-Phe-Thr-Ser-Cys [SS-14]”: the inhibition of insulin result in the assay on rainbow trout was “did not”. Further, the “ability to inhibit the release of growth hormone” value (shortened to “ability to inhibit the release”) in assay [1] is on record as “equipotent”. As for “Ser-Ala-Asn-Ser-Asn-Pro-Ala-Met-Ala-Pro-Arg-Glu-Arg-Lys-Ala-Gly-Cys-Lys-Asn-Phe-Phe-Trp-Lys-Thr-Phe-Thr-Ser-Cys (SANSNPAMAPRERKAGCKNFFWKTFTSC; listed as Homo sapiens) [SS-28]”, in assay [1], the “ability to inhibit the release” value was “equipotent”.

For the molecule “salmonid SS-25: 25 amino acid PPSS-II″ proprotein containing [Tyr7, Gly10]-SS-14 at its C-terminus; synthetic (SVDNLPPRERKAGCKNFYWKGFTSC; ends and bridges not checked; cysteine pairing not given here)”, the inhibition of insulin entry in the assay on rainbow trout is reported as “inhibited insulin”. In addition, the “affinity of the human somatostatin receptor type 1 for the ligand (inhibition of binding of 125I-[Tyr1]-SS-14)” value in assay [2] is given as “greater affinity”. For the same molecule, in assay [1], the “ability to inhibit the release” value was “no effect”. Turning to SANSNPAMAPRERKAGCKNFFWKTFTSC [mammalian SS-28], the binding result in assay [3] is on record as “binds”.
